Test results as given in patent publication US20200268690A1, “TOPICAL COMPOSITIONS” (Atossa Therapeutics, Inc., priority 2017, published 2020).
Read-outs that look alike come from different tables or passages of the source.

Tests used:
[1] = Accelerated stability of (Z)-endoxifen free base in polar organic solvents in the absence and presence of human cadaver skin; type: physicochemical; conditions: for % Potency: relative to initiation of study; for potency and stability in presence of skin compared with absence of skin: in the solvents of Table 3, 45° C., after 2 days
Method: (§1) HPLC-UV. Briefly, (E)- and (Z)-endoxifen were analyzed by High Performance Liquid Chromatography, HPLC (instrument: Agilent 1100) using a UV detector (Agilent). Chromatographic resolution was obtained using a Luna Phenyl Hexyl Column ([…]×150 mm) at a column temperature of 40° C. Samples were injected in an injection volume of 10 ul and run at a flow rate of 1.0 ml/min. The mobile phase system used consisted of: A) water with 10 mM ammonium formate (HCOONH4) with 0.03% formic acid and B) Methanol with 10 mM ammonium formate (HCOONH4).
The stability studies of endoxifen free base in various pure polar organic solvents/MPEs were performed as described below. Accelerated stability studies of (Z)-endoxifen free base in solvents/MPEs were performed over a course of 2 days at 45° C. in both the presence and the absence of human cadaver skin to assess the degree to which the (Z)-endoxifen conversion to (E)-endoxifen by isomerization and or chemical degradation of the endoxifen is accelerated upon contact with skin and skin components. (Z)-Endoxifen solutions at […] of saturation concentrations were prepared in 1 ml batches in solvents as listed below in the Table 3. The potencies of (Z)-endoxifen and (E)-endoxifen were determined by HPLC-UV analysis as described above. Potency results are shown compared with potencies measured when the sample were stored at the initiation of stability study.

[2] = cited from earlier work
[3] = Solubility of endoxifen free base in polar organic solvents (HPLC-UV); type: physicochemical; conditions: for Z/E Ratio: room temperature
Method: (Z)-endoxifen free base was synthesized as described above in Example 1. (Z)-endoxifen was solubilized in various solvents as provided in Table 1, and tested for physical and chemical stability in solution. The solutions were prepared in ˜1 ml batches typically for solubility and stability testing. The mixture was stirred overnight on a rotisserie at room temperature. The next, day, the suspension was filtered using a syringe filter (0.2 um pore size GHP membrane). The filtrated solution was then analyzed for the concentration of (Z)-endoxifen and (E)-endoxifen as using a validated HPLC-UV method as described below.
as §1
UV detection of (E)-endoxifen and (Z)-endoxifen isomers was performed at 243 nm with a run time of 30 minutes. Retention times for (E)-endoxifen and (Z)-endoxifen were 15.14 m and 16.25 m respectively. […] The solubility of (Z)-endoxifen ranged from about 1 mg/g of solution to over 30 mg/g of solution.

patients = conditions: oral tamoxifen; cited from earlier work
[4] = in Diethyl Sebacate, 45° C. + skin, 2 days
[5] = in Diethyl Sebacate, 45° C., 2 days
[6] = in Diethylene glycol monoethyl ether, 45° C. + skin, 2 days
[7] = in Diethylene glycol monoethyl ether, 45° C., 2 days
[8] = in Diisopropyl Adipate, 45° C. + skin, 2 days
[9] = in Diisopropyl Adipate, 45° C., 2 days
[10] = in Dimethyl Isosorbide, 45° C. + skin, 2 days
[11] = in Dimethyl Isosorbide, 45° C., 2 days
[12] = in Dimethyl Sulfoxide, 45° C. + skin, 2 days
[13] = in Dimethyl Sulfoxide, 45° C., 2 days
[14] = in Dipropylene Glycol, 45° C. + skin, 2 days
[15] = in Dipropylene Glycol, 45° C., 2 days
[16] = in Isopropanol, 45° C. + skin, 2 days
[17] = in Isopropyl Myristate, 45° C. + skin, 2 days
[18] = in Isopropyl Myristate, 45° C., 2 days
[19] = in PEG 300, 45° C. + skin, 2 days

Compound	% Potency [1, 4] [%]	% Potency [1, 5] [%]	% Potency [1, 6] [%]	% Potency [1, 7] [%]	% Potency [1, 8] [%]	% Potency [1, 9] [%]	% Potency [1, 10] [%]	% Potency [1, 11] [%]	% Potency [1, 12] [%]	% Potency [1, 13] [%]	% Potency [1, 14] [%]	% Potency [1, 15] [%]	% Potency [1, 16] [%]	% Potency ([1]; in Isopropanol, 45° C., 2 days) [%]	% Potency [1, 17] [%]	% Potency [1, 18] [%]	% Potency [1, 19] [%]	% Potency ([1]; in PEG 300, 45° C., 2 days) [%]	potency and stability in presence of skin compared with absence of skin [1]	other results
CC/C(=C(/c1ccc(O)cc1)c1ccc(OCCNC)cc1)c1ccccc1 [(E)-endoxifen free base]	99	101	98	100	101	100	16	15	101	101	95	95	106	106	68	67	92	91	maintained potency and stability	
CC/C(=C(\c1ccc(O)cc1)c1ccc(OCCNC)cc1)c1ccccc1.Cl [(Z)-endoxifen HCl]																				t90 ([2]; 45° C.): 9 days; (Z)-endoxifen HCl remaining after degradation ([2]; aqueous medium, 45° C., day 15, from 98%): 75%; t90 ([2]; room temperature): 149 days
CC/C(=C(\c1ccc(O)cc1)c1ccc(OCCNC)cc1)c1ccccc1 [(Z)-endoxifen free base, (Z)-4-(1-(4-(2-(methylamino)ethoxy)phenyl)-2-phenylbut-1-enyl)phenol]	94	100	98	100	99	99	17	16	101	102	94	93	105	105	63	65	92	91	maintained potency and stability	
CC/C(=C(\c1ccc(O)cc1)c1ccc(OCCNC)cc1)c1ccccc1 [Endoxifen free base, (E/Z)-4-[1-[4-[2-(Methylamino)ethoxy]phenyl]-2-phenyl-1-buten-1-yl]-phenol]																				solubility (in words) ([3]; in polar organic solvents/MPEs such as DMSO, ethanol, diethylene monoethyl ether, and oleic acid): significantly soluble; Z/E Ratio ([3]; saturated solution in Capric Trigylceride (Solvent No. 15)): 0.63; Z/E Ratio ([3]; saturated solution in Diethyl Sebacate (Solvent No. 2)): 1.7; Z/E Ratio ([3]; saturated solution in Diethylene glycol monoethyl ether (Solvent No. 10)): 1.89; Z/E Ratio ([3]; saturated solution in Diisopropyl Adipate (Solvent No. 3)): 1.87; Z/E Ratio ([3]; saturated solution in Dimethyl Isosorbide (Solvent No. 4)): 1.82; Z/E Ratio ([3]; saturated solution in Dimethyl Sulfoxide (Solvent No. 1)): 1.87; Z/E Ratio ([3]; saturated solution in Dipropylene Glycol (Solvent No. 5)): 1.82; Z/E Ratio ([3]; saturated solution in Ethanol (Solvent No. 6)): 1.72; Z/E Ratio ([3]; saturated solution in Isopropanol (Solvent No. 7)): 1.88; Z/E Ratio ([3]; saturated solution in Isopropyl Myristate (Solvent No. 12)): 1.09; Z/E Ratio ([3]; saturated solution in Oleic Acid (Solvent No. 14)): 1.02; Z/E Ratio ([3]; saturated solution in PEG300 (Solvent No. 8)): 1.77; Z/E Ratio ([3]; saturated solution in PEG 400 (Solvent No. 11)): 1.78; Z/E Ratio ([3]; saturated solution in Propylene Glycol (Solvent No. 9)): 1.60; Z/E Ratio ([3]; saturated solution in Soybean Oil (Solvent No. 13)): 0.76; stability (in words) ([1]; dissolved in dimethyl isosorbide and isopropyl myristate, 45° C., 2 days): poor stability
CC/C(=C(\c1ccccc1)c1ccc(OCCN(C)C)cc1)c1ccccc1 [tamoxifen, (Z)-2-[4-(1,2-diphenyl-1-butenyl)phenoxy]-N,N-dimethylethanamine]																				patients with elevated liver function tests, especially SGOT/AST (patients): about 5%
